PubChem BioAssay (NCI)
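Tested at 5 concentrations; 48 h exposure; 96-well plates; endpoints linearly interpolated, else capped at highest concentration. Definition used: TGI = concentration required for complete inhibition of growth.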

Key:
Test in all cases: growth of human tumour cells (NCI), 48 h
[1] = system: DU-145 prostate
[2] = system: M14 melanoma
[3] = system: NCI-H23 lung
[4] = system: OVCAR-4 ovarian
[5] = system: LOX IMVI melanoma
[6] = system: A498 renal
[7] = system: K-562 leukemia
[8] = system: COLO 205 colon
[9] = system: 786-0 renal
[10] = system: SN12C renal
[11] = system: NCI/ADR-RES ovarian
[12] = system: SK-MEL-28 melanoma
[13] = system: MALME-3M melanoma
[14] = system: SNB-19 CNS
[15] = system: UO-31 renal
[16] = system: SF-539 CNS
[17] = system: MCF7 breast
[18] = system: UACC-257 melanoma
[19] = system: RPMI-8226 leukemia
[20] = system: UACC-62 melanoma
[21] = system: CCRF-CEM leukemia
[22] = system: RXF 393 renal
[23] = system: SK-MEL-5 melanoma
[24] = system: HCT-116 colon
[25] = system: HOP-62 NSCLC
[26] = system: SNB-75 CNS
[27] = system: OVCAR-5 ovarian
[28] = system: IGROV1 ovarian
[29] = system: SK-MEL-2 melanoma
[30] = system: SW-620 colon
[31] = system: NCI-H460 lung
[32] = system: MOLT-4 leukemia
[33] = system: KM12 colon
[34] = system: ACHN renal
[35] = system: HOP-92 NSCLC
[36] = system: PC-3 prostate
[37] = system: MDA-MB-435
[38] = system: EKVX NSCLC
[39] = system: HT29 colon
[40] = system: MDA-N
[41] = system: A549 NSCLC
[42] = system: MDA-MB-231 breast
[43] = system: SF-295 CNS
[44] = system: NCI-H522 lung
[45] = system: SK-OV-3 ovarian
[46] = system: TK-10 renal
[47] = system: HCT-15 colon
[48] = system: HS 578T breast
[49] = system: SF-268 CNS
[50] = system: OVCAR-8 ovarian
[51] = system: CAKI-1 renal
[52] = system: BT-549 breast
[53] = system: U251 CNS
[54] = system: HL-60(TB) leukemia
[55] = system: T-47D breast
[56] = system: HCC-2998 colon
[57] = system: OVCAR-3 ovarian
[58] = system: NCI-H226 lung
[59] = system: SR leukemia

Measured: TGI

C=CS(=O)(=O)c1c2cc(OC)ccc2nc2ccc(OC)cc12
4.89 µM: [13]
3.74 µM: [44]
5.02 µM: [24]
> 42.3 µM: [8]
28.8 µM: [33]
> 52.6 µM: [53]
35.5 µM: [55]
32.8 µM: [25]
7.16 µM: [5]
23.5 µM: [46]
26.3 µM: [26]
7.82 µM: [9]
28.2 µM: [3]
45.1 µM: [14]
> 21.2 µM: [16]
> 20.7 µM: [30]
14.9 µM: [51]
> 25.7 µM: [17]
24.5 µM: [34]
> 44.3 µM: [31]
22.7 µM: [37]
19.8 µM: [1]
76.2 µM: [11]
> 36.9 µM: [27]
10.7 µM: [39]
24 µM: [18]
12.5 µM: [28]
33.1 µM: [45]
24.8 µM: [56]
35.1 µM: [58]
> 100 µM: [32] | [54]
> 33.9 µM: [47]
50.7 µM: [42]
51.3 µM: [29]
31.3 µM: [20]
7.28 µM: [19]
15.8 µM: [57]
8.21 µM: [10]
> 51.1 µM: [35]
23.3 µM: [36]
45.6 µM: [12]
33.4 µM: [49]
30 µM: [4]
> 23.4 µM: [7] | [21]
> 27.4 µM: [15]
> 47.1 µM: [41]
11.3 µM: [40]
11.9 µM: [48]
22.4 µM: [52]
21.1 µM: [38]
> 49.7 µM: [2]
27 µM: [23]
32.3 µM: [43]
15.4 µM: [50]
18.4 µM: [22]
27.7 µM: [6]

O=C(Nc1ccccc1Cl)c1cc(S(=O)(=O)Nc2n[nH]c(=O)n2-c2ccccc2)c(S)cc1Cl
not listed: [7] | [24] | [26] | [34] | [36] | [41] | [44] | [46]
> 100 µM: all other assays above

O=c1c2c3c(sc2nc(CN2CCNCC2)n1-c1ccccc1)CCCC3
82.9 µM: [4]
not listed: [16] | [37]
> 100 µM: all other assays above

O=C(Nc1ccccc1)c1cc(S(=O)(=O)Nc2nc3ncccc3[nH]2)c(SSc2cc(Cl)c(C(=O)Nc3ccccc3)cc2S(=O)(=O)Nc2nc3ncccc3[nH]2)cc1Cl
not listed: [59]
> 100 µM: all other assays above

O=C(/C=C(\N=P(c1ccccc1)(c1ccccc1)c1ccccc1)C(F)(F)C(F)(F)C(F)(F)C(F)(F)C(F)(F)C(F)(F)C(F)(F)F)c1ccccc1
not listed: [6] | [38] | [42] | [44] | [50] | [58]
> 100 µM: all other assays above
